# Test results reported in ChEMBL document CHEMBL1201862, “PubChem BioAssay data set” (2004).
# Calls of active or inactive are those of the source.
# Columns and labels:
# Tumor necrosis factor = Tumor necrosis factor (Homo sapiens, UniProt P01375); assay: analog potency on TNFa NF-kB signaling – cell-based, revised, SAR follow-up (AID 2337); assay type: functional
# [1] = target: T1, Nucleotide-binding oligomerization domain-containing protein 1 (Homo sapiens, UniProt Q9Y239); assay: blockers of NOD1 pathway activity – revised, SAR follow-up (AID 2333); assay type: functional
# T1 sequence (Q9Y239 whole entry): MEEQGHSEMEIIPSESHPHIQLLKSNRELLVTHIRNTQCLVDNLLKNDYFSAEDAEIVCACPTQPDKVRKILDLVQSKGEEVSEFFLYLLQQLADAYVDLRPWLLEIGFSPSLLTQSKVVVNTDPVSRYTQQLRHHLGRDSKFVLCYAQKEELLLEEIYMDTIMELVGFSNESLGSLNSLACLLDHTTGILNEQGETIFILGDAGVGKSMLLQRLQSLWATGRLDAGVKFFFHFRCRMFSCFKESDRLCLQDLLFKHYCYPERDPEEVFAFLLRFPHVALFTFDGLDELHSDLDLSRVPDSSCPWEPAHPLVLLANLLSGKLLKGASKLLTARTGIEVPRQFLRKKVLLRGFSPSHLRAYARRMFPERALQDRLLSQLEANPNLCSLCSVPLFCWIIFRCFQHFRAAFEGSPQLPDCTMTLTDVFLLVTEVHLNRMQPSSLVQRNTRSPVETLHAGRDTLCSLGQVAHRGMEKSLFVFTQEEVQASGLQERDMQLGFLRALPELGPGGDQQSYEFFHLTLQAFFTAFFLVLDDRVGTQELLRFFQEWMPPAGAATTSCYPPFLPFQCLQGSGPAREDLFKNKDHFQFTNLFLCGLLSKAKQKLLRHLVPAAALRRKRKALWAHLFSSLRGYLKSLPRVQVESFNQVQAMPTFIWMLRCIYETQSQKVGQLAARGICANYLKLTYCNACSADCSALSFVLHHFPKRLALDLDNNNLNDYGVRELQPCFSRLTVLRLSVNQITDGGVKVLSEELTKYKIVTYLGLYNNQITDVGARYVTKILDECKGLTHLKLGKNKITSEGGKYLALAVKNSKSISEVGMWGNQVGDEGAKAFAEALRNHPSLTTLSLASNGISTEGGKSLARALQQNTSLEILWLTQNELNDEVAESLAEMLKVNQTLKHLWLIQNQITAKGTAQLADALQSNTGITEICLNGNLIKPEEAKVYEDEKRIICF
# HEK293 = assay: cells; details: Homo sapiens;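 further: cells exposed to compound for 14 hours overnight before viability readout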
# [2] = viability of uninfected HEp-2 cells – cell-based, HTS, cytotoxicity control for RSV inhibitor project, dose response (AID 2410); assay type: functional; details: human respiratory syncytial virus
# Vero = assay: cells; assay type: functional, cell-based; details: Chlorocebus sabaeus
# [3] = decrease of insulin promoter-GFP reporter – imaging, high-content screening, mouse beta cells (AID 1628); assay type: functional; details: MIN6
# [4] = MIN6 cell viability loss – mouse insulinoma, cytotoxicity control, dose response (AID 2122); assay type: functional;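 further: confirmatory high-throughput counterscreen run to flag cytotoxic compounds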
# Fatty acid synthase [5] = target: T2, Fatty acid synthase (Homo sapiens, UniProt P49327); assay: inhibition of human FAS-TE enzyme activity – biochemical, kinetic fluorescence intensity, dose response (AID 624326); assay type: functional;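 further: rate of fluorescence rise from hydrolysis of a fluorogenic O-methyl fluorescein ester substrate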
# T2 sequence (P49327 whole entry): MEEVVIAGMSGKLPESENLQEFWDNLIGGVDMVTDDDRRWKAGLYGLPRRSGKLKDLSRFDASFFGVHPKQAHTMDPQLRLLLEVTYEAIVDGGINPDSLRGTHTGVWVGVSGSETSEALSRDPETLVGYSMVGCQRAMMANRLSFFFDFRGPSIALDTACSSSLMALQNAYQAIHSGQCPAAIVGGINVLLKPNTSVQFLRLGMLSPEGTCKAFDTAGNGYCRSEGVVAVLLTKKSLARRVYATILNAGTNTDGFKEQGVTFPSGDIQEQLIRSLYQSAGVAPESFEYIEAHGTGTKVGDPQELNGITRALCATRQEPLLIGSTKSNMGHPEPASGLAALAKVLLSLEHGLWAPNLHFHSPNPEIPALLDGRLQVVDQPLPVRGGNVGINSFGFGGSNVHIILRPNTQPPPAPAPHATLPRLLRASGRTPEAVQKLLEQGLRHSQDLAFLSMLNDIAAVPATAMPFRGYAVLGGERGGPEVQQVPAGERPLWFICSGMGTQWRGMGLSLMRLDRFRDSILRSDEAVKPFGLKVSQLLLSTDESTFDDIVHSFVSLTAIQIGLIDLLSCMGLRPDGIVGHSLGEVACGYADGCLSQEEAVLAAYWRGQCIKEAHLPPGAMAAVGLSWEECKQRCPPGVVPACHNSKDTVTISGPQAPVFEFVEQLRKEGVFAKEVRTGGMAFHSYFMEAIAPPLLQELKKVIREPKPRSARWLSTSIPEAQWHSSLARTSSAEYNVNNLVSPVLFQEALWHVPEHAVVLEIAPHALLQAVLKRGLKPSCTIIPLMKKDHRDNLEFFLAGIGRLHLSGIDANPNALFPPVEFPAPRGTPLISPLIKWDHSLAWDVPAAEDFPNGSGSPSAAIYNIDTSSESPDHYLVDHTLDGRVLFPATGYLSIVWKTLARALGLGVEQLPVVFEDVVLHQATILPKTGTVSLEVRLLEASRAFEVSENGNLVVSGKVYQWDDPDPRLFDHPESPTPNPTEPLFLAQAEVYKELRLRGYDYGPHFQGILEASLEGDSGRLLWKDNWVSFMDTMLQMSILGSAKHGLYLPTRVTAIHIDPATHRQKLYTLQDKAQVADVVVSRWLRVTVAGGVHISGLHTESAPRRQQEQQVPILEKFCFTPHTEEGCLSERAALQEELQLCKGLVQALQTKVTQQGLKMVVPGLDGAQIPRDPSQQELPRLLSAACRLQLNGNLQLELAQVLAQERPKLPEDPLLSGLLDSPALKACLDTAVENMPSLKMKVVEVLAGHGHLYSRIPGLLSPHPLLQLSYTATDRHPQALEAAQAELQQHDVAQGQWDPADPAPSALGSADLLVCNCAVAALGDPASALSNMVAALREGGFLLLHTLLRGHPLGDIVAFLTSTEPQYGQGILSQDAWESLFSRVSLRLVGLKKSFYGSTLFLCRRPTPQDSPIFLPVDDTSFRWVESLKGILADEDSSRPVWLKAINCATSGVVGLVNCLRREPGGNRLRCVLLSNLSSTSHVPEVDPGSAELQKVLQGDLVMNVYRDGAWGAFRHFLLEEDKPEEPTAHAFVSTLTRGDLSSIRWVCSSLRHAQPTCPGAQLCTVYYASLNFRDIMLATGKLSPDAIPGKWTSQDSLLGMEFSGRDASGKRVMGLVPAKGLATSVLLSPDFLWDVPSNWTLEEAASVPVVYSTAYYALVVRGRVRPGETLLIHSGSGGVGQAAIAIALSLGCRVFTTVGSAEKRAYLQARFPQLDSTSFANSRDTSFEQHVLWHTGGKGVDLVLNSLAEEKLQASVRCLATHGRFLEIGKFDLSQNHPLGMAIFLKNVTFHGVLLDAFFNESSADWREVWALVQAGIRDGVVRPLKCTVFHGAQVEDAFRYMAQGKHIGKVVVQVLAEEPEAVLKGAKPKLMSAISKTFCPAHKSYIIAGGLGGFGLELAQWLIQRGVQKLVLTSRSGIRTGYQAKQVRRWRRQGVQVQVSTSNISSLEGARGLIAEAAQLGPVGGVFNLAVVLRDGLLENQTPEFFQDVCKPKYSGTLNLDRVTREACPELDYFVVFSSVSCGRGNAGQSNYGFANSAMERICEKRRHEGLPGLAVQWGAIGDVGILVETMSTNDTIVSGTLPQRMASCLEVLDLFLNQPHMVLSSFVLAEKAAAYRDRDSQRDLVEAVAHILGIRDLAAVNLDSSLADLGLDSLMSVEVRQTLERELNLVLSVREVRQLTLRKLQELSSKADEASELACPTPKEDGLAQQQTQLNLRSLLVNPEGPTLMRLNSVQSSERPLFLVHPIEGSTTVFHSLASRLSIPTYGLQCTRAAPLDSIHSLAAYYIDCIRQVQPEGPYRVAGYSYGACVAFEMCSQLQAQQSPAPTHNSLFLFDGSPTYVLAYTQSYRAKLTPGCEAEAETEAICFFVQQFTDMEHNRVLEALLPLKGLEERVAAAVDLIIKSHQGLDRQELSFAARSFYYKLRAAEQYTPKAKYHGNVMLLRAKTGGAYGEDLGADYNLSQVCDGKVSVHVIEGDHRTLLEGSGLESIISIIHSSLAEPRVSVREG
# Fatty acid synthase [6] = target: T2, Fatty acid synthase; assay: inhibition of human FAS-TE enzyme activity – biochemical, endpoint fluorescence intensity, uHTS hits, dose response (AID 624327); assay type: functional;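 further: fluorescence from hydrolysis of an O-methyl fluorescein acyl ester substrate by the enzyme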
# [7] = target: T3, Type-1 angiotensin II receptor (Homo sapiens, UniProt P30556); assay: antagonism of angiotensin II type 1 receptor – cell-based, uHTS hits, selectivity assay for APJ receptor antagonist project, dose response (AID 463214); assay type: functional;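 further: antagonist potency against angiotensin II stimulated AT1 response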
# T3 sequence (P30556 whole entry): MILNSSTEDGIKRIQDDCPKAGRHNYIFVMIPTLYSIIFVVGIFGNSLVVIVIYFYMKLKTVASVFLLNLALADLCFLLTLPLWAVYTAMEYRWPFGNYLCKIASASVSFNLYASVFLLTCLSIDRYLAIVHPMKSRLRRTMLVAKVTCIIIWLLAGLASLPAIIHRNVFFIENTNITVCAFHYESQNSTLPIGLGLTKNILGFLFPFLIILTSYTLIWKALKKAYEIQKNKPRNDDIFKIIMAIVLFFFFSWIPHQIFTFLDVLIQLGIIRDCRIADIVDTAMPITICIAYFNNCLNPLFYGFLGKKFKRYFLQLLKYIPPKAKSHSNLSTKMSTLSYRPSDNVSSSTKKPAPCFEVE
# Beta-galactosidase = Beta-galactosidase (Escherichia coli, UniProt Q8VNN2); assay: PubChem AID 485352; assay type: functional
# Chain of Beta-galactosidase (Q8VNN2 whole entry): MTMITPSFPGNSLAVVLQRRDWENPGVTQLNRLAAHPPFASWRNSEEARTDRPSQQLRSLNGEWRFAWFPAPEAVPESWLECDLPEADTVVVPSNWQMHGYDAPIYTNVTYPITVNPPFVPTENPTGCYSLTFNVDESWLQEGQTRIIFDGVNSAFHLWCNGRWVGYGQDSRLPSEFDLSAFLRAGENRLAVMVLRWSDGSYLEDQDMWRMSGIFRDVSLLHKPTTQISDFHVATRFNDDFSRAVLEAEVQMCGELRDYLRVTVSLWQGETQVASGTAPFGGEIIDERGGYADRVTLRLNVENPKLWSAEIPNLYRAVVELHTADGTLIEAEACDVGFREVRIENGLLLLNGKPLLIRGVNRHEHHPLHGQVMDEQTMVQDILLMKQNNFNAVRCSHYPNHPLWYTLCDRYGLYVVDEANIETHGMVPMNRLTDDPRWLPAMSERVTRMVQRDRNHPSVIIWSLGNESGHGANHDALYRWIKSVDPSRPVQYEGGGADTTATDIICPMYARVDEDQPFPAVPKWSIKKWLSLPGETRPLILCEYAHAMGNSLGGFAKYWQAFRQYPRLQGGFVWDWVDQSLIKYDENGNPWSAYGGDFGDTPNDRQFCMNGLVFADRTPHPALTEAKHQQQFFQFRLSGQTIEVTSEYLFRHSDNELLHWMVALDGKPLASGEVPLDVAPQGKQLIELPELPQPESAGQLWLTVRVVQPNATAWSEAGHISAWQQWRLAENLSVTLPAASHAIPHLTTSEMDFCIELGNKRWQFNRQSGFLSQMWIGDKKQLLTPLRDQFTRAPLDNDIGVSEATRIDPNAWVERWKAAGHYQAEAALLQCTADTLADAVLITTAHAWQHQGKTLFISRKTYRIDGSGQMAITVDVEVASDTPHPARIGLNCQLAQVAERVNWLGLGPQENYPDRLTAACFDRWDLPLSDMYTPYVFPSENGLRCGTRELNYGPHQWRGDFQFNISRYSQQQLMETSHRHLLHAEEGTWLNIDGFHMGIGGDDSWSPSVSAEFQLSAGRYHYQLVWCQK
# Caspase-3 [8] = target: T4, Caspase-3 (Homo sapiens, UniProt P42574); assay: inhibition of recombinant caspase-3 activity – biochemical, luminescence, set 2, selectivity assay for SENP protease inhibitor project, SAR follow-up (AID 588599); assay type: functional
# T4 sequence (P42574 whole entry): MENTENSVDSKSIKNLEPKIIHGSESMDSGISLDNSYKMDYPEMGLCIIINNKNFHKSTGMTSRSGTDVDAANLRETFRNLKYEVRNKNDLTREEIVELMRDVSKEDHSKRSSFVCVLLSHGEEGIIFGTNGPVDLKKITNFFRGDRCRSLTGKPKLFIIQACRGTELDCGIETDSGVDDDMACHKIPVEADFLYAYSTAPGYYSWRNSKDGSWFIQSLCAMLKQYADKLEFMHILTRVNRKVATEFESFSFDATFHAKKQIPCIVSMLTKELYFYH
# Caspase-3 [9] = target: T4, Caspase-3; assay: SAR Analysis of small molecule inhibitors of Sentrin-specific proteases (SENPs) using a Caspase-3 Selectivity assay. [Related pubchem assays (depositor defined):AID2540, AID2599, AID434973, AID489001]; assay type: functional
# [10] = target: T5, Sentrin-specific protease 6 (Homo sapiens, UniProt Q9GZR1); assay: SAR Analysis of small molecule inhibitors of Sentrin-specific protease 6 (SENP6) using a Luminescent assay. [Related pubchem assays (depositor defined):AID2582, AID2599]; assay type: functional
# T5 sequence (Q9GZR1 whole entry): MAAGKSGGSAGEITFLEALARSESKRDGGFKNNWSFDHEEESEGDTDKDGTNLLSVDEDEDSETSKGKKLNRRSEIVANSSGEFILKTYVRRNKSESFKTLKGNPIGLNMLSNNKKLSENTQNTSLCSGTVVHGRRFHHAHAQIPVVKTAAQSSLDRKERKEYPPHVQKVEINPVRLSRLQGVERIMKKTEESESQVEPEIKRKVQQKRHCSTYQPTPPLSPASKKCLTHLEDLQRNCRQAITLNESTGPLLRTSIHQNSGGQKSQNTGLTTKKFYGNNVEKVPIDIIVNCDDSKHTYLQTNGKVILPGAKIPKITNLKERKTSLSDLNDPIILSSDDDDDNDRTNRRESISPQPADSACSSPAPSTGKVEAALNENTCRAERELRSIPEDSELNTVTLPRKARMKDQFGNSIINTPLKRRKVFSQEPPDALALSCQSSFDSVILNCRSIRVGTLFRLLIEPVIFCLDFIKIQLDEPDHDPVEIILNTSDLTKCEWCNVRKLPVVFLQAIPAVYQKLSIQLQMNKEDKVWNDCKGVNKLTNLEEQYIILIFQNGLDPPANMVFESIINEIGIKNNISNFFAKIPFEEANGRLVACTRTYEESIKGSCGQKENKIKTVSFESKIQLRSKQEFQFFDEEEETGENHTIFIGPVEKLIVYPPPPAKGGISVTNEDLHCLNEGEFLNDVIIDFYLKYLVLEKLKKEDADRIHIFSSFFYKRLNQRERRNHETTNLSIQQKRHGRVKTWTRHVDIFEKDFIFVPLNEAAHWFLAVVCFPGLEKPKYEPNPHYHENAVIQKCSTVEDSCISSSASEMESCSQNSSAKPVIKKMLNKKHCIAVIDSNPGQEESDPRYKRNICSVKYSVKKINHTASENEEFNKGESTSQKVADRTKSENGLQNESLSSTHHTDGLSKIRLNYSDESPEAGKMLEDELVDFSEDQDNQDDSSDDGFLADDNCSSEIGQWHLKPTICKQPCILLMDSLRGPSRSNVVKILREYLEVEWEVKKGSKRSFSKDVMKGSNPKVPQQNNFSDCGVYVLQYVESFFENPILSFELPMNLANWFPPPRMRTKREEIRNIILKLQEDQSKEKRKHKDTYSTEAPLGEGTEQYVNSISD
# [11] = target: T6, Sentrin-specific protease 7 (Homo sapiens, UniProt Q9BQF6); assay: inhibition of human SENP7 cleavage activity – biochemical, luminescence, SAR follow-up (AID 504497); assay type: functional
# T6 sequence (Q9BQF6 whole entry): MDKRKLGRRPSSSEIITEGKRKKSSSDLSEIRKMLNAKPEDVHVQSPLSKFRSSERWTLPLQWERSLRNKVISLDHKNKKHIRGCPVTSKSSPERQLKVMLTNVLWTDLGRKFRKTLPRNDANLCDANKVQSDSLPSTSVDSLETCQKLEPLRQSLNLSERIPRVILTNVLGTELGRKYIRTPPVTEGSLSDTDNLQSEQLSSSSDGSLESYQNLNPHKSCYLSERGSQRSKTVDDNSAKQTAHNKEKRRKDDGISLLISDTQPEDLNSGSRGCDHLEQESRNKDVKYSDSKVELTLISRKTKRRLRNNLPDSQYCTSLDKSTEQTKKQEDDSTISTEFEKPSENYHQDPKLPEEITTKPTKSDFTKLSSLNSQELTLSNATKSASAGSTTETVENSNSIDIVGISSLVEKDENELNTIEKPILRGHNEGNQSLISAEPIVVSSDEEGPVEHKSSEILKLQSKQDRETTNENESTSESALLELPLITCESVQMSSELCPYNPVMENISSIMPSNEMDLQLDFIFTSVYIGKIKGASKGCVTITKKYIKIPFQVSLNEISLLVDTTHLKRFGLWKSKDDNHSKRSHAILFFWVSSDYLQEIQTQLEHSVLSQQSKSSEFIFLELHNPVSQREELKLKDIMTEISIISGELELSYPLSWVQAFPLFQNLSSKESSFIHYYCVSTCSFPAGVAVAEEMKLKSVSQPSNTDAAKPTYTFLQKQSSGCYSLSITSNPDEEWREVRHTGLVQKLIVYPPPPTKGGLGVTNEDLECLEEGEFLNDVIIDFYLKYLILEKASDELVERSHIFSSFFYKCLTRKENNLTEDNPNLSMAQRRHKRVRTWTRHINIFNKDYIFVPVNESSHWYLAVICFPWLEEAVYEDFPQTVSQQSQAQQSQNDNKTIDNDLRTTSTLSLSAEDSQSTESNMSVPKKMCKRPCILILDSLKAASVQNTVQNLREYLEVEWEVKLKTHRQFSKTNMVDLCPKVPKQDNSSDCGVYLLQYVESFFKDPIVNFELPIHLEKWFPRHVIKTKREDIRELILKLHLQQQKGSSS
# [12] = target: T7, Sentrin-specific protease 8 (Homo sapiens, UniProt Q96LD8); assay: inhibition of sentrin protease 8 – biochemical, luminescence, set 2, SAR follow-up (AID 588601); assay type: functional
# T7 sequence (Q96LD8 whole entry): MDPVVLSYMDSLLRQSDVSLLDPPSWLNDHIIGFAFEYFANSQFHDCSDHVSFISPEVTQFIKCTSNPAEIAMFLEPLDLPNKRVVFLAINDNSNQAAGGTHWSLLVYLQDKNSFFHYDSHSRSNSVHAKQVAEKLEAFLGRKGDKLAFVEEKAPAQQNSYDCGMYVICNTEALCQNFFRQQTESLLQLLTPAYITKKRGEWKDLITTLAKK
# [13] = target: T6, Sentrin-specific protease 7; assay: inhibition of human SENP7 cleavage activity – biochemical, luminescence, set 2, SAR follow-up (AID 588600); assay type: functional
# [14] = target: T7, Sentrin-specific protease 8; assay: inhibition of human SENP8 cleavage activity – biochemical, luminescence, SAR follow-up (AID 504501); assay type: functional
# Chain of Tumor necrosis factor (P01375 whole entry, the tested form may be a part): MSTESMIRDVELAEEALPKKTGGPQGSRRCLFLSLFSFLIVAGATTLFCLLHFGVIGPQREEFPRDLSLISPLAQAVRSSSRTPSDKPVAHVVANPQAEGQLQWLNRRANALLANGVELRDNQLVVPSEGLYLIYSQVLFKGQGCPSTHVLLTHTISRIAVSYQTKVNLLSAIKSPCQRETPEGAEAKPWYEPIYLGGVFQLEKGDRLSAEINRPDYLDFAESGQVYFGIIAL
smiles,measurement,setting,value
CCCOc1ccc(C=NN=C(S)Nc2ccccc2[N+](=O)[O-])c(O)c1,IC50,Tumor necrosis factor,0.88 µM (active)
same,IC50,[1],7.73 µM (active)
same,IC50,HEK293,> 20 µM (inactive)
Nc1ccc(C(=O)OCCCc2nc3cc4ccccc4cc3[nH]2)cc1,CC50,[2],46 µM (active)
same,IC50,Vero,> 25 µM (active)
Brc1ccc2[nH]c3c(c2c1)CCC3,IC50,Vero,> 25 µM (active)
c1ccc(N2CCN(Cc3ccnc4ccccc34)CC2)cc1,IC50,[3],3.42 µM (active)
same,IC50,[4],2.84 µM (active)
O=C(CCc1ccccc1)OCC(=O)c1cccc([N+](=O)[O-])c1,IC50,Fatty acid synthase [5],9.4 µM (active)
same,IC50,Fatty acid synthase [6],11.3 µM (active)
same,IC50,[7],19.2 µM (active)
same,EC50,Beta-galactosidase,> 40 µM (inactive)
C(#Cc1ccccc1)C[N+]1(CC#Cc2cccc3ccccc23)CCOCC1,IC50,[3],2.29 µM (active)
same,IC50,[4],2.19 µM (active)
O=C(COC(=O)c1cc2ccccc2oc1=O)c1cccc([N+](=O)[O-])c1,IC50,[7],> 40 µM (not active)
same,EC50,Beta-galactosidase,> 40 µM (inactive)
COc1cccc(N2CC(C)Cn3c2nc2c3c(=O)[nH]c(=O)n2C)c1 (stereo not given),IC50,[7],> 40 µM (not active)
same,EC50,Beta-galactosidase,> 40 µM (inactive)
O=C(Nc1nc2ccc(Cl)cc2s1)c1cccs1,IC50,Caspase-3 [8],2.07 µM (active)
same,IC50,Caspase-3 [9],2 µM (active)
same,IC50,[10],1.3 µM (active)
same,IC50,[11],1.2 µM (active)
same,IC50,[12],1.25 µM (active)
same,IC50,[13],1.39 µM (active)
same,IC50,[14],1.5 µM (active)
